Read-outs that look alike come from different tables or passages of the source.
Assays:
G3BP1 NFT2 = format: binding, human; details: library DMS-CoV, bait G3BP1 NFT2, prey N, listed as aa = residue placed at this position, column sums to 1
PABPC1 PABC = format: binding, human; details: DMS-BM library, bait PABPC1 PABC, row aa = residue at this position; for DMS-derived PSSM value, position T1: T = wild type
[1] = prey ATXN2, TLNPNAKEFNPRSF(averaged) over the two overlapping peptides, N = wild type
[2] = prey ATXN2, peptide TLNPNAKEFNPRSFSQ
[3] = prey ATXN2, peptide KSTLNPNAKEFNPRSF, P = wild type

With “RNAPRITFGGPSDSTG S12Q (RNAPRITFGGPQDSTG)” the “DMS PSSM value, S (position 12)” value (G3BP1 NFT2; peptide RNAPRITFGGPSDSTG) was 0.
With “RNAPRITFGGPSDSTG P11V (RNAPRITFGGVSDSTG)” the “DMS PSSM value, P (position 11)” value (G3BP1 NFT2; peptide RNAPRITFGGPSDSTG) was 0.
With APRITFGGPSDSTGSN P2T (ATRITFGGPSDSTGSN) the “DMS PSSM value, P (position 2)” value (G3BP1 NFT2; peptide APRITFGGPSDSTGSN) was 0.
With APRITFGGPSDSTGSN G8T (APRITFGTPSDSTGSN) the “DMS PSSM value, G (position 8)” value (G3BP1 NFT2; peptide APRITFGGPSDSTGSN) was 0.001267.
“APRITFGGPSDSTGSN D11N (APRITFGGPSNSTGSN)” was tested, and the “DMS PSSM value, D (position 11)” value (G3BP1 NFT2; peptide APRITFGGPSDSTGSN) was 0.02182.
With APRITFGGPSDSTGSN I4N (APRNTFGGPSDSTGSN) the “DMS PSSM value, I (position 4)” value (G3BP1 NFT2; peptide APRITFGGPSDSTGSN) was 0.
For RNAPRITFGGPSDSTG N2I (RIAPRITFGGPSDSTG), the “DMS PSSM value, N (position 2)” value (G3BP1 NFT2; peptide RNAPRITFGGPSDSTG) was 0.
“RNAPRITFGGPSDSTG P11F (RNAPRITFGGFSDSTG)” was tested, and the “DMS PSSM value, P (position 11)” value (G3BP1 NFT2; peptide RNAPRITFGGPSDSTG) was 0.
“APRITFGGPSDSTGSN T13R (APRITFGGPSDSRGSN)” was tested, and the “DMS PSSM value, T (position 13)” value (G3BP1 NFT2; peptide APRITFGGPSDSTGSN) was 0.
For APRITFGGPSDSTGSN G7E (APRITFEGPSDSTGSN), the “DMS PSSM value, G (position 7)” value (G3BP1 NFT2; peptide APRITFGGPSDSTGSN) was 0.08457.
In the case of APRITFGGPSDSTGSN R3N (APNITFGGPSDSTGSN), the “DMS PSSM value, R (position 3)” value (G3BP1 NFT2; peptide APRITFGGPSDSTGSN) is reported as 0.0002259.
With “RNAPRITFGGPSDSTG P11N (RNAPRITFGGNSDSTG)” the “DMS PSSM value, P (position 11)” value (G3BP1 NFT2; peptide RNAPRITFGGPSDSTG) was 0.
With RNAPRITFGGPSDSTG R5M (RNAPMITFGGPSDSTG) the “DMS PSSM value, R (position 5)” value (G3BP1 NFT2; peptide RNAPRITFGGPSDSTG) was 0.2004.
For RNAPRITFGGPSDSTG A3D (RNDPRITFGGPSDSTG), the “DMS PSSM value, A (position 3)” value (G3BP1 NFT2; peptide RNAPRITFGGPSDSTG) was 0.1526.
“APRITFGGPSDSTGSN S12K (APRITFGGPSDKTGSN)” was tested, and the “DMS PSSM value, S (position 12)” value (G3BP1 NFT2; peptide APRITFGGPSDSTGSN) was 0.
“RNAPRITFGGPSDSTG P11I (RNAPRITFGGISDSTG)” was tested, and the “DMS PSSM value, P (position 11)” value (G3BP1 NFT2; peptide RNAPRITFGGPSDSTG) was 0.
APRITFGGPSDSTGSN I4G (APRGTFGGPSDSTGSN) was tested, and the “DMS PSSM value, I (position 4)” value (G3BP1 NFT2; peptide APRITFGGPSDSTGSN) was 0.
For APRITFGGPSDSTGSN G7H (APRITFHGPSDSTGSN), the “DMS PSSM value, G (position 7)” value (G3BP1 NFT2; peptide APRITFGGPSDSTGSN) was 0.
In the case of “RNAPRITFGGPSDSTG D13N (RNAPRITFGGPSNSTG)”, the “DMS PSSM value, D (position 13)” value (G3BP1 NFT2; peptide RNAPRITFGGPSDSTG) is reported as 0.
With “APRITFGGPSDSTGSN S15H (APRITFGGPSDSTGHN)” the “DMS PSSM value, S (position 15)” value (G3BP1 NFT2; peptide APRITFGGPSDSTGSN) was 0.01115.
“APRITFGGPSDSTGSN S10I (APRITFGGPIDSTGSN)” was tested, and the “DMS PSSM value, S (position 10)” value (G3BP1 NFT2; peptide APRITFGGPSDSTGSN) was 0.2604.
For APRITFGGPSDSTGSN G7S (APRITFSGPSDSTGSN), the “DMS PSSM value, G (position 7)” value (G3BP1 NFT2; peptide APRITFGGPSDSTGSN) was 0.
With “APRITFGGPSDSTGSN G14V (APRITFGGPSDSTVSN)” the “DMS PSSM value, G (position 14)” value (G3BP1 NFT2; peptide APRITFGGPSDSTGSN) was 0.009945.
“TLNPNAKEFNPRSF(averaged) N10Y (TLNPNAKEFYPRSF)” was tested, and the “DMS-derived PSSM value (averaged), position N10” value (PABPC1 PABC; [1]) was 0.1006.
In the case of TLNPNAKEFNPRSFSQ T1R (RLNPNAKEFNPRSFSQ), the “DMS-derived PSSM value, position T1” value (PABPC1 PABC; [2]) is reported as 0.08249.
For TLNPNAKEFNPRSFSQ A6Q (TLNPNQKEFNPRSFSQ), the “DMS-derived PSSM value, position A6” value (PABPC1 PABC; prey ATXN2, peptide TLNPNAKEFNPRSFSQ, A = wild type) was 0.
With “KSTLNPNAKEFNPRSF P13N (KSTLNPNAKEFNNRSF)” the “DMS-derived PSSM value, position P13” value (PABPC1 PABC; [3]) was 0.004405.
For “TLNPNAKEFNPRSF(averaged) E8I (TLNPNAKIFNPRSF)”, the “DMS-derived PSSM value (averaged), position E8” value (PABPC1 PABC; prey ATXN2, TLNPNAKEFNPRSF(averaged) over the two overlapping peptides, E = wild type) was 0.006482.
In the case of TLNPNAKEFNPRSFSQ P4G (TLNGNAKEFNPRSFSQ), the “DMS-derived PSSM value, position P4” value (PABPC1 PABC; prey ATXN2, peptide TLNPNAKEFNPRSFSQ, P = wild type) is reported as 0.0005247.
For KSTLNPNAKEFNPRSF S2T (KTTLNPNAKEFNPRSF), the “DMS-derived PSSM value, position S2” value (PABPC1 PABC; prey ATXN2, peptide KSTLNPNAKEFNPRSF, S = wild type) was 0.02133.
With “TLNPNAKEFNPRSF(averaged) N10Q (TLNPNAKEFQPRSF)” the “DMS-derived PSSM value (averaged), position N10” value (PABPC1 PABC; [1]) was 0.06161.
TLNPNAKEFNPRSFSQ N5E (TLNPEAKEFNPRSFSQ) was tested, and the “DMS-derived PSSM value, position N5” value (PABPC1 PABC; prey ATXN2, peptide TLNPNAKEFNPRSFSQ, N = wild type) was 3.906e-5.
TLNPNAKEFNPRSFSQ T1L (LLNPNAKEFNPRSFSQ) was tested, and the “DMS-derived PSSM value, position T1” value (PABPC1 PABC; [2]) was 0.1166.
“KSTLNPNAKEFNPRSF P13L (KSTLNPNAKEFNLRSF)” was tested, and the “DMS-derived PSSM value, position P13” value (PABPC1 PABC; [3]) was 0.006424.
In the case of “TLNPNAKEFNPRSF(averaged) N10A (TLNPNAKEFAPRSF)”, the “DMS-derived PSSM value (averaged), position N10” value (PABPC1 PABC; [1]) is reported as 0.08276.
In the case of “TLNPNAKEFNPRSF(averaged) P4R (TLNRNAKEFNPRSF)”, the “DMS-derived PSSM value (averaged), position P4” value (PABPC1 PABC; prey ATXN2, TLNPNAKEFNPRSF(averaged) over the two overlapping peptides, P = wild type) is reported as 0.

From publication PMC12102759 (Protein Science : A Publication of the Protein Society, 2025)
